Measurements as given in PMC3517478 (BMC Neurology, 2012).
Numbering of substitutions follows the chain as printed.

Tests used:
[1] = biological target: T1, human α1R271K-GlyR expressed in HEK 293 cells (Homo sapiens, UniProt P23415, R299K); details: R271K
T1 sequence (P23415 29-457 R299K): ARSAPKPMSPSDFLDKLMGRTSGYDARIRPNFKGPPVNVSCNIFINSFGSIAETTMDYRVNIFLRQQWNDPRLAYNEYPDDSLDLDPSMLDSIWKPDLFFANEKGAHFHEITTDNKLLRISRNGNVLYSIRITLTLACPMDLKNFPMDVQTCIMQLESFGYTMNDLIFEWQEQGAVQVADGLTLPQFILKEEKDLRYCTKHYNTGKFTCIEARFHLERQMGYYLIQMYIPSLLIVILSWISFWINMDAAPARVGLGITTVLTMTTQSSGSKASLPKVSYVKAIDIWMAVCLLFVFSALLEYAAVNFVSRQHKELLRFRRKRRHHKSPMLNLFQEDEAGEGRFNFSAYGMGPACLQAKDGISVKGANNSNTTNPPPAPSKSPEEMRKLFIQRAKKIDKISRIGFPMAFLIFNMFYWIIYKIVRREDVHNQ
From the text: (§1) Human α1-, α1R271Q-, α1R271L-, α1R271K and α1S267I-GlyR subunits were transiently transfected into human embryonic kidney cells (HEK 293, ATCC, Manassas, USA). The wild type α1-GlyR -cDNA was cloned in pCIS2 (Invitrogen, San Diego, USA) vector and provided by Prof. Heinrich Betz (Max-Planck-Institut für Hirnforschung, Frankfurt am Main, Germany). For the plasmid cDNA of the mutated α1R271Q-, α1R271L-, α1R271K- and α1S267I-GlyR the eukaryotic expression vector pcDNA1amp (Invitrogen, San Diego, USA), under the control of cytomegalovirus promoter, was used. For site-directed mutagenesis, single stranded template cDNA was synthesized from M13 origin of replication and the mutations of arginine residue (R) at position 271 to glutamine (R271Q), leucine (R271L) or lysine (R271K) and mutation of serine residue (S) at position 267 to isoleucine (S267I) were generated using standard procedures. […] Wild type and mutated α1-GlyR subunits efficiently form homomeric receptors in heterologous expression systems.
(§2) HEK 293 cells were cultured in medium containing HAMS’F-12 (Biochrom, Berlin, Germany), supplemented with 10% fetal bovine serum (FBS, Biochrom, Berlin, Germany), 100 U ml^–1 penicillin and 100μgml^–1 streptomycin (Gibco BRL, Life Technologies, Karlsruhe, Germany) at 37°C in a 5% CO2/ 95% air incubator. For transfection cells were suspended in a buffer containing 50mM K2HPO4 (Fluka BioChemika, Seelze, Germany), 20mMK-acetate (Sigma-Aldrich, Taufkirchen, Germany) and 25mM MgSO4 (Sigma-Aldrich, Taufkirchen, Germany) at pH 7.35. To visualize transfected cells, they were co-transfected with cDNA encoding for enhanced green fluorescent protein (EGFP) contained in the pEGFP-N1 expression vector (Clontech, Palo Alto, USA). The corresponding cDNA (5μg for the GlyR and 2.5μg for EGFP) was added to 400μl of the cell suspension and the mixture was rapidly transferred into the electroporation cuvette. For transfection we used an electroporation device by EquiBio (Kent, UK) and a 4mm aluminum electrode electroporation cuvette (Peqlab, Erlangen, Germany).
(§3) The phenol derivative 4-chloropropofol ([…]) was provided as pure substance by Prof. Paul M. O’Neill (University of Liverpool, England), prepared as light-protected 1M stock solution in ethanol (EtOH, J.T.Baker, Griesheim, Germany) and stored in glass vessels at −20°C.
(§4) Drug-containing vials were vigorously vortexed for 30min. Patch electrodes were filled with an intracellular solution of [mM] KCl 140, MgCl2 2, EGTA 11, HEPES 10, glucose 11, CaCl2 1 with pH 7.3, adjusted with 1 M KOH and a bath solution contained [mM] NaCl 162, KCl 5.31, NaHPO4 0.85, KH2PO4 0.22, HEPES 15, glucose 6.11, pH 7.4 adjusted with 1 M NaOH. Osmolarity of both solutions was set at 280–300 mOsmol.
(§5) Whole-cell experiments were performed at a holding potential of −30 mV with a mean seal resistance of 1 GΩ. […] A fast liquid filament switch technique was used for the application of the agonist, presented in pulses of 2 s duration every 20 s. The liquid filament switch technique is able to exchange the solution passing an outside-out patch or small whole-cells within 1–2 ms. We calculated flow rate of background solution through the chamber with 3,4 ml/min corresponding to 4% of maximal pump rate. With regard to the chamber volume of 100 μl the exchange solution time within the chamber was assessed to approximately […], dependent on cell size accordingly. Piezo-switch and small diameter capillary (ID 0.15 mm) within the measurement chamber promoted the millisecond solution exchange. […] The induced current (I) by this saturating control solution was defined as Icontrol. […] The stability of the seal was controlled during the complete experiment via control of the seal resistance. A variation of 10-20% of the basic value was regarded as tolerable.

[2] = biological target: T2, human α1R271Q-GlyR expressed in HEK 293 cells (Homo sapiens, UniProt P23415, R299Q); details: R271Q
T2 sequence (P23415 29-457 R299Q): T1 sequence (P23415 29-457 R299K) with K271Q
From the text: as §1, §2, §3, §4, §5

[3] = 10-90% of Imax, monoexponential fit

## NCC(=O)O [glycine]
[1]
  Current amplitude [% of mean WT current amplitude] ± SEM: 32.0±18%
  nH ± SEM (Hill coefficient), glycine activation: 1.0±0.5
[1]; [3]
  Rise time ± SEM: 14.9 ± 7.7 ms
[1]; saturating glycine 10 mM
  Mean current amplitude ± SEM: 526±97 pA
[2]
  Current amplitude [% of mean WT current amplitude] ± SEM: 7.5±15%
  nH ± SEM (Hill coefficient), glycine activation: 1.0±0.6
[2]; 1 mM glycine
  current peaks: less than 50 pA
[2]; 10-100 μM glycine
  activation by low glycine concentrations: lacks activation
[2]; [3]
  Rise time ± SEM: 673 ± 224 ms
